Earlier results on two molecules are cited in article PMC8730323 (The Journal of organic chemistry, 2021).

Broadly, the IC50 is the concentration that inhibits the measured activity by half.

One data set has as its system HL-60 cell line. The following applies: read-out: IC50 against HL-60 cell line; leukemia cells.
The test system of another data set is NCL-H460 cell line. As to conditions: read-out: IC50 against human lung cancer NCL-H460 cell line.

In the case of `Cc1c(O)cc(C[C@]23C[C@H](C[C@H](C)O2)c2c4c(c(O)c(C)c2O3)CO[C@@]2(C4)C[C@@H](O)C[C@H](C)O2)c(C=O)c1O` [(+)-1, (+)-peniciketal A], in the data set with HL-60 cell line, the 50% inhibitory concentration (IC50) is 3.2 µM. Besides, the “Toxicity to normal cells compared with cancer cells (in words)” value with normal cells was “less toxic”.

Consider (−)-diocollettines A [(−)-5], for which the IC50 in the data set on NCL-H460 cell line is 20.2 µM.
